Values after ≈ are worked out from the molar mass of the structure shown. Where two headings read alike, the source gives them in different places.
How the values were obtained:
[1] = tested on: S. aureus clinical isolates; test: microbe, parasite or virus in culture; format: cell-based; settings: Staphylococcus aureus, read-out: MIC
[2] = tested on: S. aureus VISA ATCC 700699 GyrB / ParE mutants; test: MIC of spontaneous resistant mutants (single-step and second-step); format: cell-based; settings: for MIC: Staphylococcus aureus
Description: MICs were determined using a standard serial broth microdilution technique according to the CLSI guidelines. Briefly, bacterial strains were inoculated onto MHBII agar plates and were grown overnight at 37 °C. Next, 3 individual colonies from each strain were inoculated into 1 mL MHBII medium and propagated at 37 °C, 250 rpm overnight. In the cases of Enterococcus and Streptococcus sp., cells were plated to BHI agar plates, and BHI broth was used to determine MICs. […] Following dilutions, each well was seeded with 5×10^4 bacterial cells. All measurements were performed in 3 parallel replicates and to avoid possible edge effects in microwell plates, side rows (A and H) were filled with sterile medium. Following inoculations, plates were covered with lids and wrapped in polyethylene plastic bags to minimize evaporation but allow for O2 transfer. Plates were incubated at 37 °C under continuous shaking at 150 rpm for 18 hours. After incubation, OD600 of each well was measured using a BioTek Synergy 2 microplate reader.

[3] = in vitro; settings: human

Cc1[nH]c(C(=O)Nc2nc3c(OCc4ccccc4)cc(C(=O)O)cc3s2)c(Cl)c1Cl [ULD2] showed an MIC ([1]; MRSA, S. aureus IHMA 1742231, MRSA / VSSA) of 0.12 µg/mL (≈ 0.252 µM), an MIC ([1]; MRSA, S. aureus IHMA 1766357, MRSA / VSSA) of 0.12 µg/mL (≈ 0.252 µM) and an MIC ([1]; MSSA / NRS 12 / VISA, S. aureus IHMA 1308244, NRS12, MSSA / VISA) of 0.5 µg/mL (≈ 1.05 µM). The MIC ([1]; MSSA / NRS 13 / VISA, S. aureus IHMA 1308245, NRS13, MSSA / VISA) was 0.5 µg/mL (≈ 1.05 µM), the MIC ([1]; MSSA / NRS 14 / VISA, S. aureus IHMA 1308246, NRS14, MSSA / VISA) was 1 µg/mL (≈ 2.1 µM) and the MIC ([1]; MSSA / NRS 17 / VISA, S. aureus IHMA 1308247, NRS17, MSSA / VISA) was 1 µg/mL (≈ 2.1 µM). The MIC ([1]; MSSA / NRS 28 / VISA, S. aureus IHMA 1308249, NRS28, MSSA / VISA) was 1 µg/mL (≈ 2.1 µM), the MIC ([1]; MSSA / NRS 52, S. aureus IHMA 1308252, NRS52, MSSA / VSSA* (*Expected VAN intermediate, confirmed VAN susceptible twice), test date 2018-11-07) was 0.12 µg/mL (≈ 0.252 µM) and the MIC ([1]; MSSA / USA100 / VRSA, S. aureus IHMA 672236, VRS6, MSSA / VRSA, USA100) was 0.12 µg/mL (≈ 0.252 µM). For the same compound, the MIC ([1]; MSSA, S. aureus IHMA 1563826, MSSA / VSSA) was 0.25 µg/mL (≈ 0.525 µM), the MIC ([1]; MSSA, S. aureus IHMA 1565492, MSSA / VSSA) was 0.12 µg/mL (≈ 0.252 µM) and the MIC ([1]; MSSA, S. aureus IHMA 1569499, MSSA / VSSA) was 0.5 µg/mL (≈ 1.05 µM). It also gave an MIC ([1]; MSSA, S. aureus IHMA 1569754, MSSA / VSSA) of 0.12 µg/mL (≈ 0.252 µM), an MIC ([1]; MSSA, S. aureus IHMA 1574202, MSSA / VSSA) of 0.25 µg/mL (≈ 0.525 µM) and an MIC ([1]; MSSA, S. aureus IHMA 1575652, MSSA / VSSA) of 0.25 µg/mL (≈ 0.525 µM). For the same compound, the MIC ([1]; MSSA, S. aureus IHMA 1575779, MSSA / VSSA) was 0.5 µg/mL (≈ 1.05 µM), the MIC ([1]; MSSA, S. aureus IHMA 1576329, MSSA / VSSA) was 0.5 µg/mL (≈ 1.05 µM) and the MIC ([1]; MSSA, S. aureus IHMA 1577800, MSSA / VSSA) was 0.25 µg/mL (≈ 0.525 µM). For the same compound, the MIC ([1]; MSSA, S. aureus IHMA 1578560, MSSA / VSSA) was 0.5 µg/mL (≈ 1.05 µM), the MIC ([1]; MSSA, S. aureus IHMA 1580233, MSSA / VSSA) was 0.12 µg/mL (≈ 0.252 µM) and the MIC ([1]; MSSA, S. aureus IHMA 1580925, MSSA / VSSA) was 0.25 µg/mL (≈ 0.525 µM). It also gave an MIC ([1]; MSSA, S. aureus IHMA 1580955, MSSA / VSSA) of 0.5 µg/mL (≈ 1.05 µM), an MIC ([1]; MSSA, S. aureus IHMA 1582586, MSSA / VSSA) of 0.5 µg/mL (≈ 1.05 µM) and an MIC ([1]; MSSA, S. aureus IHMA 1582691, MSSA / VSSA) of 0.25 µg/mL (≈ 0.525 µM). For the same compound, the MIC ([1]; MSSA, S. aureus IHMA 1584230, MSSA / VSSA) was 0.5 µg/mL (≈ 1.05 µM), the MIC ([1]; MSSA, S. aureus IHMA 1587279, MSSA / VSSA) was 0.5 µg/mL (≈ 1.05 µM) and the MIC ([1]; MSSA, S. aureus IHMA 1591459, MSSA / VSSA) was 0.25 µg/mL (≈ 0.525 µM). It also gave an MIC ([1]; MSSA, S. aureus IHMA 1592749, MSSA / VSSA) of 0.5 µg/mL (≈ 1.05 µM), an MIC ([1]; MSSA, S. aureus IHMA 1592751, MSSA / VSSA) of 0.25 µg/mL (≈ 0.525 µM) and an MIC ([1]; MSSA, S. aureus IHMA 1594297, MSSA / VSSA) of 1 µg/mL (≈ 2.1 µM). The MIC ([1]; MSSA, S. aureus IHMA 1597120, MSSA / VSSA) was 0.5 µg/mL (≈ 1.05 µM), the MIC ([1]; MSSA, S. aureus IHMA 1597125, MSSA / VSSA) was 0.5 µg/mL (≈ 1.05 µM) and the MIC ([1]; MSSA, S. aureus IHMA 1599157, MSSA / VSSA) was 0.5 µg/mL (≈ 1.05 µM). The MIC ([1]; MSSA, S. aureus IHMA 1599506, MSSA / VSSA) was 0.12 µg/mL (≈ 0.252 µM), the MIC ([1]; MSSA, S. aureus IHMA 1602078, MSSA / VSSA) was 0.5 µg/mL (≈ 1.05 µM) and the MIC ([1]; MSSA, S. aureus IHMA 1604586, MSSA / VSSA) was 0.25 µg/mL (≈ 0.525 µM). The MIC ([1]; MSSA, S. aureus IHMA 1604609, MSSA / VSSA) was 0.5 µg/mL (≈ 1.05 µM), the MIC ([1]; MSSA, S. aureus IHMA 1609919, MSSA / VSSA) was 0.25 µg/mL (≈ 0.525 µM) and the MIC ([1]; MSSA, S. aureus IHMA 1622864, MSSA / VSSA) was 0.25 µg/mL (≈ 0.525 µM). It also gave an MIC ([1]; MSSA, S. aureus IHMA 1626392, MSSA / VSSA) of 0.5 µg/mL (≈ 1.05 µM), an MIC ([1]; MSSA, S. aureus IHMA 1713793, MSSA / VSSA) of 0.5 µg/mL (≈ 1.05 µM) and an MIC ([2]; VISA GyrB I175T) of 0.088 µg/mL. For the same compound, the MIC ([2]; VISA GyrB R144G) was 0.058 µg/mL, the MIC ([2]; VISA GyrB R144I) was 0.058 µg/mL and the MIC ([2]; VISA wt, read-out: MIC) was 0.02 µg/mL. It also gave an MIC ([2]; second-step mutant, selection ULD1 at 16× MIC, GyrB I175T, ParE A120D) of 0.25 µg/mL, an MIC ([2]; second-step mutant, selection ULD1 at 16× MIC, GyrB I175T, ParE F95Y) of 0.25 µg/mL and an MIC ([2]; second-step mutant, selection ULD1 at 16× MIC, GyrB I175T, ParE T166A) of 0.125 µg/mL. For the same compound, the MIC ([2]; second-step mutant, selection ULD1 at 16× MIC, GyrB I175T, ParE T166I) was 0.25 µg/mL, the MIC ([2]; second-step mutant, selection ULD1 at 16× MIC, GyrB R144I, ParE A120D) was 0.25 µg/mL and the MIC ([2]; second-step mutant, selection ULD1 at 16× MIC, GyrB R144I, ParE F95Y) was 0.125 µg/mL. The MIC ([2]; second-step mutant, selection ULD1 at 16× MIC, GyrB R144I, ParE R136G) was 0.25 µg/mL, the MIC ([2]; second-step mutant, selection ULD1 at 16× MIC, GyrB R144I, ParE R136L) was 0.125 µg/mL and the MIC ([2]; second-step mutant, selection ULD2 at 8× MIC, GyrB I175T, ParE A120D) was 1 µg/mL. It also gave an MIC ([2]; second-step mutant, selection ULD2 at 12× MIC, GyrB R144I, ParE A120D) of 0.125 µg/mL, an MIC ([2]; second-step mutant, selection ULD2 at 12× MIC, GyrB R144I, ParE F95Y) of 0.25 µg/mL and an MIC ([2]; second-step mutant, selection ULD2 at 12× MIC, GyrB R144I, ParE R136G) of 0.25 µg/mL. The “concentration inhibiting all isolated double mutants and laboratory evolved strains” value ([2]; {}) was ≤ 1 µg/mL, the “concentration inhibiting all isolated second-step resistant mutants” value ([2]; {}) was ≤ 1 µg/mL and the IC50 [3] was > 100 µM.

Reference: paper PMC7561186, “Rational design of balanced dual-targeting antibiotics with limited resistance” (PLoS Biology, 2020)
